# Measured values: ChEMBL document CHEMBL1143791, “Synthesis of isonicotinoylhydrazones from anacardic acid and their in vitro activity against Mycobacterium smegmatis” (2007)
# The source made the active and inactive calls. No cut-off for these calls is given here.
# Assays:
# [1] = test system: Mycolicibacterium smegmatis; test: Antimicrobial activity against Mycobacterium smegmatis str. MC2 155 after 24 hrs at 1 ug/ml by broth dilution method; format: functional
# [2] = test system: Mycolicibacterium smegmatis; test: Antimicrobial activity against Mycobacterium smegmatis str. MC2 155 after 24 hrs by broth dilution method; format: functional; settings: str. MC2 155, 24 h
# [3] = test system: Mycobacterium tuberculosis; test: Antimicrobial activity against Mycobacterium tuberculosis H37Rv at 0.5 ug/ml after 6 weeks; format: functional, organism-based
# [4] = test system: Mycolicibacterium smegmatis; test: Antimicrobial activity against Mycobacterium smegmatis mc2 155 after 24 hrs at 0.5 ug/ml by broth dilution method; format: functional, organism-based; settings: str. MC2 155
# [5] = test system: Mycobacterium tuberculosis; test: Antimicrobial activity against Mycobacterium tuberculosis H37Rv at 10 ug/ml after 6 weeks; format: functional, organism-based
# [6] = test system: Mycolicibacterium smegmatis; test: Antimicrobial activity against Mycobacterium smegmatis str. MC2 155 after 24 hrs at 100 ug/ml by broth dilution method; format: functional, organism-based
structure (smiles),measurement,setting,value
NNC(=O)c1ccncc1 [ISONIAZID],Activity,[1],36%
same,MIC,[2],1.5 µg/mL
O=C(N/N=C/CCCCCCCc1cccc(O)c1C(=O)O)c1ccncc1,Activity,[3],inactive
same,MIC,[2],4 µg/mL
same,Activity,[4],inactive
same,Activity,[5],Active
C=CC/C=C\C/C=C\CCCCCCCc1cccc(O)c1C(=O)O,Activity,[6],inactive
CCCCCCCCCCCCCCCc1c([N+](=O)[O-])ccc(O)c1C(=O)O,Activity,[6],inactive
O=C(N/N=C/CCCCCCCc1c([N+](=O)[O-])ccc(O)c1C(=O)O)c1ccncc1,Activity,[3],inactive
same,MIC,[2],5 µg/mL
same,Activity,[4],inactive
same,Activity,[5],Active
